In PMC4097383 (Drug and alcohol dependence, 2013):

Tests used:
[1] = molecular target: T1, human cardiac calsequestrin (CASQ2) (Homo sapiens, UniProt O14958); assay: isothermal titration calorimetry; assay type: binding
T1 sequence (O14958 20-399): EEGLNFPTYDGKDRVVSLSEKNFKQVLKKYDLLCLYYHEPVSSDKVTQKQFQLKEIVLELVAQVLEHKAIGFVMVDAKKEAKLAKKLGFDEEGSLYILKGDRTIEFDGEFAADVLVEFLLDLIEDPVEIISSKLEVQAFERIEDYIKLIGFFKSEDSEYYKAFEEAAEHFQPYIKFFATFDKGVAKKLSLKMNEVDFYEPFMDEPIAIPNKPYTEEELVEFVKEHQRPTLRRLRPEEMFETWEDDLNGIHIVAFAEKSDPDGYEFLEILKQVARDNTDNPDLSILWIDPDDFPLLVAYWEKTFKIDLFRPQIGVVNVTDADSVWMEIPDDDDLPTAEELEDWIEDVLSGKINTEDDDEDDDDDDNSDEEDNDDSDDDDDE

[2] = molecular target: T1, human cardiac calsequestrin (CASQ2); assay: equilibrium dialysis and atomic absorption spectroscopy; assay type: biochemical; details: 350 μM cocaine, 1 mg/mL CASQ2, 1 h preincubation
SEC-MALS = molecular target: the molecule itself; assay: SEC-MALS

COC(=O)[C@H]1[C@@H](OC(=O)c2ccccc2)C[C@@H]2CC[C@H]1N2C [cocaine] was tested, and the Kd [1] was 63.5 ± 2.7 µM and the “% reduction in Ca2+ binding capacity at 350 μM” value [2] was ~ 50%.

B1: human cardiac calsequestrin (CASQ2) (natural protein)
chain: GLNFPTYDGKDRVVSLSEKNFKQVLKKYDLLCLYYHEPVSSDKVTQKQFQLKEIVLELVAQVLEHKAIGFVMVDAKKEAKLAKKLGFDEEGSLYILKGDRTIEFDGEFAADVLVEFLLDLIEDPVEIISSKLEVQAFERIEDYIKLIGFFKSEDSEYYKAFEEAAEHFQPYIKFFATFDKGVAKKLSLKMNEVDFYEPFMDEPIAIPNKPYTEEELVEFVKEHQRPTLRRLRPEEMFETWEDDLNGIHIVAFAEKSDPDGYEFLEILKQVARDNTDNPDLSILWIDPDDFPLLVAYWEKTFKIDLFRPQIGVVNVTDADSVWMEIPDDDDLPTAEELEDWIEDVLSGKINTEDDDEDDDDDDNSDEEDNDDSDDDDDE
With B1 the “stoichiometry N” value (SEC-MALS) was 2.
